Earlier results in patent US7851424B2, “Antimicrobial hand wash” (GOJO Industries, Inc., priority 2006, dated 2010).

Oc1cc(Cl)ccc1Oc1ccc(Cl)cc1Cl [Triclosan, 2,4,4′-trichloro-2′hydroxy-diphenylether]
pKa: 7.4
